Assay results reported in PMC3578785, “Improved BM212 MmpL3 Inhibitor Analogue Shows Efficacy in Acute Murine Model of Tuberculosis Infection” (PLoS ONE, 2013).
≈ marks a conversion by molar mass, not a printed value. Where two headings read alike, the source gives them in different places.

Columns and labels:
M. tuberculosis H37Rv = experiment: microbe, parasite or virus in culture; assay type: cell-based; details: Mycobacterium tuberculosis, aerobic conditions
[1] = molecular target: human serum albumin (HSA) (Homo sapiens, UniProt P02768); assay type: in vitro ADME
Experimental: Standard physical chemical property determination methods were used. Please see the Supporting Information for details.
Protocol S4. Determination of compounds binding to human serum albumin (HSA).
The determination of compounds binding to human serum albumin (HSA) was carried out by retention time measurements using immobilized HSA HPLC columns obtained from Chiral Technologies Ltd, France. The column dimensions were 50x3 mm. The mobile phase was 50 mM ammonium acetate buffer pH 7.4 and HPLC grade 2-propanol. HPLC Method: flow rate 1.8 ml/min applying 2.5 min 2-propanol gradient up to 30%. From 2.5 min to 4.5 min the 2-propanol concentration in the mobile phase was kept at 30%. From 4.5 min to 4.6 min, the 2-propanol concentration was decreased to 0% and kept like that until the end of the gradient run which was 6 min. A calibration set of compounds was first analyzed for which plasma protein binding data were available: Warfarin, Nizatidine, Bromazepam, Carbamazepine, Budesonide, Nicardipine, Indomethacine, Piroxicam, Naproxen. The calculation of the HSA binding data expressed as %HSA was carried out as described previously.

in vitro [2] = assay type: in vitro ADME, mouse; details: for half-life / Cli mouse: pH 7.4; for half-life: read-out: t1/2 in mouse microsomes; for Cli mouse: 0.5 µM
Experimental: (§1) Protocol S6. Microsomal fraction stability experimental procedure.
(§2) Pooled mouse and human liver microsomes are purchased from Xenotech. Microsomes (final protein concentration 0.5 mg/mL, MgCl2 (final concentration = 5 mM) and test compound (final substrate concentration = 0.5 µM; final DMSO concentration = 0.5%) in 0.1M phosphate buffer pH 7.4 were pre-incubated at 37°C prior to the addition of NADPH (final concentration = 1 mM) to initiate the reaction. The final incubation volume was 600 µL. A control incubation was included for each compound tested where 0.1 M phosphate buffer pH 7.4 is added instead of NADPH (minus NADPH). One control compound was included with each species. All incubations were performed singularly for each test compound. Each compound was incubated for 30 minutes and samples (90 µL) of incubate were taken at 0, 5, 15, 20 and 30 min. The control (minus NADPH) was sampled at 30 min only. The reactions were stopped by the addition of sample to 200 µL Acetonitrile:Methanol 3:1 containing internal standard. The terminated samples were centrifuged at 2.500 rpm for 20 min at 4°C to precipitate the protein.
(§3) Quantitative Analysis: following protein precipitation, the samples were analyzed using specific […]
(§4) Data Analysis: from a plot of ln peak area ratio (compound peak area/internal standard peak area) against time, the gradient of the line was determined. Subsequently, half-life and intrinsic clearance were calculated using the equations below:
(§5) Elimination rate constant (k) = (- gradient)
(§6) Half life (t1/2) (min) = […]
(§7) Intrinsic Clearance (CLint) (mL/min/g protein) = […] where V=Incubation volume mL/g microsomal protein.

in vitro [3] = assay type: in vitro ADME, human; details: for half-life: read-out: t1/2 in human microsomes
Experimental: as §1, §2, §3, §4, §5, §6, §7

H37Rv = system: H37Rv; parameters: species or system mice; details: mouse, in vivo, po
in vivo = details: female, C57BL/6, mouse, po
in vitro [4] = details: African green monkey
in vitro [5] = details: plasma, pH 7.4
[6] = not given; remark: listed apart in the source
[7] = at 1 µM
[8] = system: M. tuberculosis H37Rv bacilli; details: cited from earlier work

Sequence of human serum albumin (HSA) (P02768 25-609): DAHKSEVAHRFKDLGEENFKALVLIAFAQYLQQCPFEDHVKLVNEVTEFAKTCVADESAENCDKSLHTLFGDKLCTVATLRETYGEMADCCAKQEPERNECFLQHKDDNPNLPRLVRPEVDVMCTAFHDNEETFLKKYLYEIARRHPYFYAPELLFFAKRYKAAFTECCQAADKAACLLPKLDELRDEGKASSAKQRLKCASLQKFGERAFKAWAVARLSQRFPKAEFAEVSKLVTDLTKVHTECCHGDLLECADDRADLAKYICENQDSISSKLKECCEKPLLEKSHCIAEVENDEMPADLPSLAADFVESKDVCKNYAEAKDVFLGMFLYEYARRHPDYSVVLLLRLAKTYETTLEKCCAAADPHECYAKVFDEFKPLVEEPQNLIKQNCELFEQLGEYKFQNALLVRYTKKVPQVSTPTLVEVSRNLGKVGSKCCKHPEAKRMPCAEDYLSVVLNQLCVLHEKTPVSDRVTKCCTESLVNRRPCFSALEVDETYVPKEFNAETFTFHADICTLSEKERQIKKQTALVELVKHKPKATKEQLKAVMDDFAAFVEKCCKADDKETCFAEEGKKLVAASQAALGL

Compound	MIC (M. tuberculosis H37Rv) [µM]	HSA (%) binding ([1]; human, pH 7.4) [%]	half-life (in vitro [2]; mouse microsomes) [min]	Cli human (in vitro [3]; human, 0.5 µM, pH 7.4) [mL/min/g]	half-life (in vitro [3]; pH 7.4, human microsomes) [min]	melting point [°C]	Tox50, cytotoxicity in HepG2 cells (HepG2 cells; human, 48 h) [µM]	CC50 at 72 h (in vitro [4]) [µM]	chromatographic logD (physchem; pH 2)	chromatographic logD (physchem; pH 7.4)	chromatographic logD (physchem; pH 10.5)	fraction unbound at 1 µM (in vitro [5])	Cli mouse (in vitro [2]) [mL/min/g]	also measured
Cc1c(CN2CCOCC2)cc(-c2ccc(C(C)C)cc2)n1-c1ccc(F)cc1 [Compound 9, 2-Methyl-3-[(morpholin-4-yl)-methyl]-5-[4-(i-propyl)phenyl]-1-[4-(fluoro)phenyl]-1H-pyrrole]	0.12 (≈ 0.0471 µg/mL)	97.71	> 30	<0.5	> 30	120	15.3	50.1	1.47	4.57	4.95	< 0.001	–	ED99 (dose that reduces 2 logs bacterial burden in the lungs of mice; 95% confidence interval in parenthesis) (H37Rv): 49 (43–54) mg/kg; AUC(0-inf) (in vivo; 50 mg/kg): 11.6 µM·h; Cmax (in vivo; 50 mg/kg): 1.62 µM; Tmax (in vivo; 50 mg/kg): 60 min; half-life (in vivo; 50 mg/kg): 60 min
CCCc1ccc(-n2c(-c3ccc(Cl)cc3)cc(CN3CCOCC3)c2C)cc1 [Compound 16, 2-Methyl-3-[(morpholin-4-yl)-methyl]-5-[4-(chloro)phenyl]-1-[4-(propyl)phenyl]-1H-pyrrole]	0.6 (≈ 0.245 µg/mL)	98.24	> 30	<0.5	> 30	94	15.4	60.1	1.72	5.61	5.86	< 0.001	–	–
Cc1c(CN2CCOCC2)cc(-c2ccc(Cl)cc2)n1-c1ccc(C(C)C)cc1 [Compound 17, 2-Methyl-3-[(morpholin-4-yl)-methyl]-5-[4-(chloro)phenyl]-1-[4-(i-propyl)phenyl]-1H-pyrrole]	0.9 (≈ 0.368 µg/mL)	98.19	19.6	0.5 ± 0	> 30	113	14.7	175	1.67	5.43	5.7	< 0.001	3.8 ± 0.1	–
COc1ccc(-n2c(-c3ccc(C)cc3)cc(CN3CCOCC3)c2C)cc1 [Compound 18, 2-Methyl-3-[(morpholin-4-yl)-methyl]-5-[4-(methyl)phenyl]-1-[4-(methoxy)phenyl]-1H-pyrrole]	2 (≈ 0.753 µg/mL)	95.87	< 5	1.26	59.9	128	11.7	208	1.04	3.6	4.12	0.007	8.92	–
CCc1ccc(-c2cc(CN3CCOCC3)c(C)n2-c2ccc(OC)cc2)cc1 [Compound 19, 2-Methyl-3-[(morpholin-4-yl)-methyl]-5-[4-(ethyl)phenyl]-1-[4-(methoxy)phenyl]-1H-pyrrole]	0.3 (≈ 0.117 µg/mL)	96.65	< 5	1.71	> 30	101	5.7	30	1.21	3.99	4.5	0.003	9.45	–
CCCc1ccc(-c2cc(CN3CCOCC3)c(C)n2-c2ccc(OC)cc2)cc1 [Compound 20, 2-Methyl-3-[(morpholin-4-yl)-methyl]-5-[4-(propyl)phenyl]-1-[4-(methoxy)phenyl]-1H-pyrrole]	0.3 (≈ 0.121 µg/mL)	97.17	10.9	0.61	> 30	107	14.3	> 256	1.4	4.46	4.93	< 0.001	5.75	–
COc1ccc(-n2c(-c3ccc(C(C)C)cc3)cc(CN3CCOCC3)c2C)cc1 [Compound 21, 2-Methyl-3-[(morpholin-4-yl)-methyl]-5-[4-(i-propyl)phenyl]-1-[4-(methoxy)phenyl]-1H-pyrrole]	0.3 (≈ 0.121 µg/mL)	97.07	10.7	2.15	> 30	109	14.1	28.2	1.35	4.32	4.81	0.001	6.07	–
COc1ccc(-c2cc(CN3CCOCC3)c(C)n2-c2ccc(C)cc2)cc1 [Compound 22, 2-Methyl-3-[(morpholin-4-yl)-methyl]-5-[4-(methoxy)phenyl]-1-[4-(methyl)phenyl]-1H-pyrrole]	0.6 (≈ 0.226 µg/mL)	95.64	< 5	1.14	> 30	115	11.3	50.1	1.02	3.57	4.11	0.008	12.62	–
CCc1ccc(-n2c(-c3ccc(OC)cc3)cc(CN3CCOCC3)c2C)cc1 [Compound 23, 2-Methyl-3-[(morpholin-4-yl)-methyl]-5-[4-(methoxy)phenyl]-1-[4-(ethyl)phenyl]-1H-pyrrole]	0.3 (≈ 0.117 µg/mL)	96.79	< 5	<0.5	> 30	72	14.7	16	1.24	4.05	4.52	0.002	7.8 ± 0.5	–
CCCc1ccc(-n2c(-c3ccc(OC)cc3)cc(CN3CCOCC3)c2C)cc1 [Compound 24]	–	–	–	–	–	–	–	–	–	–	–	–	–	HSA (%) binding [1]: 97.43%; t1/2 in mouse microsomes (in vitro [2]; mouse microsomes): >30 min; Cli human (in vitro [3]): <0.5 mL/min/g; t1/2 in human microsomes (in vitro [3]; human microsomes): >30 min; CC50 (Vero cells): 31.2 µM; Tox50, cytotoxicity in HepG2 cells (HepG2 cells): 2.1 µM; CHILogD pH 2 ([6]; pH 2): 1.46; CHILogD pH 7.4 ([6]; pH 7.4): 4.52; CHILogD pH 10.5 ([6]; pH 10.5): 4.97; PPB (%) [7]: >99.9%
CO[C@H]1/C=C/O[C@@]2(C)Oc3c(C)c(O)c4c(O)c(c(/C=N/N5CCN(C)CC5)c(O)c4c3C2=O)NC(=O)/C(C)=C\C=C\[C@H](C)[C@H](O)[C@@H](C)[C@@H](O)[C@@H](C)[C@H](OC(C)=O)[C@@H]1C [Rifampin, reference compound]	–	–	–	–	–	–	–	207	–	–	–	–	–	ED99 (dose that reduces 2 logs bacterial burden in the lungs of mice; 95% confidence interval in parenthesis) (H37Rv): 9.8 (9.0–11) mg/kg; AUC(0-inf) (in vivo; 10.4 mg/kg): 102 µM·h
CC(C)=CCC/C(C)=C/CNCCNC1C2CC3CC(C2)CC1C3 (stereo not drawn) [SQ109]	–	–	–	–	–	–	–	–	–	–	–	–	–	activity against M. tuberculosis H37Rv bacilli in anaerobic models [8]: neither AU1235 nor SQ109 gave detectable activity
AU1235	–	–	–	–	–	–	–	–	–	–	–	–	–	activity against M. tuberculosis H37Rv bacilli in anaerobic models ([8]; ref [17]-[19]): neither AU1235 nor SQ109 gave detectable activity
